Results on four molecules are retold here after patent US7914785B2, “B-cell depleting agents, like anti-CD20 antibodies or fragments thereof for the treatment of chronic fatigue syndrome” (Bergen Teknologieverforing AS, priority 2009, dated 2011).

One experiment relates to patients with CFS. To be noted: six patients with CFS; cited from earlier work.
In experiment [1] the test system is CFS symptoms in patients with chronic fatigue syndrome. The experiment in a line: Pilot treatment of three CFS patients with Rituximab infusions and weekly oral Methotrexate. The following applies: pilot patient 1, weekly oral low-dose 7.5 to 12.5 mg per week; for clinical response on CFS symptoms: used for 22 weeks. It counts as in vivo, human. The source says:
The symptom score of CFS symptoms which is in a range of 0 to 10 wherein 0 means no symptoms while 10 refers to very severe symptoms of CFS.
Methotrexat (Mtx) is a therapeutic agent with known (but not well understood) immunomodulatory properties.

Experiment [2] deals with B-cells in rheumatoid arthritis patients. The following applies: given orally on a weekly schedule for rheumatoid arthritis; cited from earlier work.
For experiment [3], the system named is patients with long-standing fatigue. To be noted: 12 patients treated; cited from earlier work.
The test system of the next experiment is CFS patients. To be noted: 99 CFS patients; cited from earlier work.

As for etanercept, in the experiment on patients with CFS, the clinical outcome was “clinical benefit”.
In the case of `CN(Cc1cnc2nc(N)nc(N)c2n1)c1ccc(C(=O)N[C@@H](CCC(=O)O)C(=O)O)cc1` [Methotrexate], in experiment [1], the “start of CFS symptom recovery after onset of weekly treatment” value turned out to be 10 weeks; the “clinical response on CFS symptoms” value is “significant and moderate clinical response on CFS symptoms”. In experiment [1] (listed as Mtx), the “clinical response on CFS symptoms” value was “gradual and moderate CFS symptom recovery”; the “start of CFS symptom recovery after onset of weekly treatment” value was 12 weeks. Besides, in experiment [2], the B-cell depletion result is reported as “moderate B-cell depletion”.
For `CC(C)[C@H](N)C(=O)OCC(CO)OCn1cnc2c(=O)nc(N)[nH]c21` (some centres unmarked) [valganciclovir], in experiment [3], the “patients with improvement of the symptoms” value was “nine”.
On to `CC[C@H]1OC(=O)[C@H](C)[C@@H](O[C@H]2C[C@@](C)(OC)[C@@H](O)[C@H](C)O2)[C@H](C)[C@@H](O[C@@H]2O[C@H](C)C[C@H](N(C)C)[C@H]2O)[C@](C)(O)C[C@@H](C)CN(C)[C@H](C)[C@@H](O)[C@]1(C)O` [azithromycin], for which the “CFS patients with improvement” value with CFS patients is listed as 59%.
